Columns and labels:
[1] = system: gramineous weeds in winter cereals; assay: Greenhouse trials, activity against gramineous weeds (summary in words); format: in vivo; conditions: with both adjuvants from as low as 250 g/ha
Protocol: In the standard implementation of the test, seeds of various broad-leaved weed and weed grass biotypes (origins) were sown in an 8-13 cm diameter pot filled with natural soil of a standard field soil (loamy silt; non-sterile) and covered with a covering soil layer of about 1 cm. The pots were then cultivated in a greenhouse (light for 12-16 h, temperature 20-22° C. by day, 15-18° C. by night) until the time of application. The pots were treated on a laboratory track sprayer with spray liquors comprising the mixtures/compositions of the invention, mixtures of the prior art or the components applied individually. Application of the active ingredients or active ingredient combinations formulated as WG, WP, EC or otherwise was effected at the appropriate growth stages of the plants. The amount of water used for spray application was 100-600 l/ha. After the treatment, the plants were returned to the greenhouses.
About 3 weeks after the application, the soil action or/and foliar action was assessed visually according to a scale of 0-100% in comparison to an untreated comparative group: 0%=no noticeable effect compared to the untreated comparative group; 100%=full effect compared to the untreated comparative group. […]

[2] = list of substances and abbreviations used; cited from earlier work

## CC1(C)CON(Cc2ccc(Cl)cc2Cl)C1=O [DCPMI, 2-[(2,4-dichlorophenyl)methyl]-4,4′-dimethyl-3-isoxazolidinone]
[1]
  improvement: significant improvement
[2]
  log P: abbreviated hereinafter to DCPMI), log P = 3.39

## CC(C)N(C(=O)COc1nnc(C(F)(F)F)s1)c1ccc(F)cc1 [flufenacet, 4′-fluoro-N-isopropyl-2-(5-trifluoromethyl-1,3,4-thiadiazol-2-yloxy)acetanilide]
[2]
  log P: (Bayer AG), abbreviated hereinafter to FFA, log P = 3.2
